In ChEMBL document CHEMBL4420075, “Seriniquinones, melanoma-specific anticancer agents” (2016):
pIC50: −log10 of the molar value. The source made the active and inactive calls. The calls are words filed in the database; no cut-off is given here.

Legend:
HCT-116 [1] = test: Cytotoxicity in human HCT116 cells by MTT assay; type: functional, cell-based
Dermcidin (Homo sapiens) = target: T1, Dermcidin (Homo sapiens) (UniProt P81605); test: Covalent binding affinity to DCD-1L (unknown origin) at 50 uM incubated for 24 hrs by denatured SDS-PAGE gel electrophoresis
T1 sequence (whole entry): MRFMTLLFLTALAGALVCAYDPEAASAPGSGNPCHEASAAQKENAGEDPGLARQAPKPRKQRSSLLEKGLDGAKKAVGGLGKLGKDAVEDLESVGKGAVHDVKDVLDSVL

HT-29 = test: Growth inhibition of human HT-29 cells assessed as cell growth incubated for 48 hrs by sulforhodamine B assay; type: functional; design: concentration or dose not given beside the values
SF-268 = test: Growth inhibition of human SF268 cells assessed as cell growth incubated for 48 hrs by sulforhodamine B assay; type: functional; design: concentration or dose not given beside the values
OVCAR-8 = test: Growth inhibition of human OVCAR8 cells assessed as cell growth incubated for 48 hrs by sulforhodamine B assay; type: functional; design: concentration or dose not given beside the values
RXF 393 = test: Growth inhibition of human RXF393 cells assessed as cell growth incubated for 48 hrs by sulforhodamine B assay; type: functional; design: concentration or dose not given beside the values
TK-10 = test: Growth inhibition of human TK10 cells assessed as cell growth incubated for 48 hrs by sulforhodamine B assay; type: functional; design: concentration or dose not given beside the values
OVCAR-3 = test: Growth inhibition of human OVCAR3 cells assessed as cell growth incubated for 48 hrs by sulforhodamine B assay; type: functional; design: concentration or dose not given beside the values
NCI-H522 = test: Growth inhibition of human NCI-H522 cells assessed as cell growth incubated for 48 hrs by sulforhodamine B assay; type: functional; design: concentration or dose not given beside the values
ACHN = test: Growth inhibition of human ACHN cells assessed as cell growth incubated for 48 hrs by sulforhodamine B assay; type: functional; design: scale not given: the % may be the effect or the level left
SF-539 = test: Growth inhibition of human SF539 cells assessed as cell growth incubated for 48 hrs by sulforhodamine B assay; type: functional; design: scale not given: the % may be the effect or the level left
HOP-92 = test: Growth inhibition of human HOP92 cells assessed as cell growth incubated for 48 hrs by sulforhodamine B assay; type: functional; design: concentration or dose not given beside the values
OVCAR-4 = test: Growth inhibition of human OVCAR4 cells assessed as cell growth incubated for 48 hrs by sulforhodamine B assay; type: functional; design: concentration or dose not given beside the values
RPMI-8226 = test: Growth inhibition of human RPMI8226 cells assessed as cell growth incubated for 48 hrs by sulforhodamine B assay; type: functional; design: concentration or dose not given beside the values
MDA-MB-435 = test: Growth inhibition of human MDA-MB-435 cells assessed as cell growth incubated for 48 hrs by sulforhodamine B assay; type: functional; design: concentration or dose not given beside the values
HOP-62 = test: Growth inhibition of human HOP62 cells assessed as cell growth incubated for 48 hrs by sulforhodamine B assay; type: functional; design: concentration or dose not given beside the values
T47D = test: Growth inhibition of human T47D cells assessed as cell growth incubated for 48 hrs by sulforhodamine B assay; type: functional; design: concentration or dose not given beside the values
MOLT-4 = test: Growth inhibition of human MOLT4 cells assessed as cell growth incubated for 48 hrs by sulforhodamine B assay; type: functional; design: concentration or dose not given beside the values
MDA-MB-231 = test: Growth inhibition of human MDA-MB-231 cells assessed as cell growth incubated for 48 hrs by sulforhodamine B assay; type: functional; design: concentration or dose not given beside the values
CCRF-CEM = test: Growth inhibition of human CCRF-CEM cells assessed as cell growth incubated for 48 hrs by sulforhodamine B assay; type: functional; design: concentration or dose not given beside the values
HL-60(TB) = test: Growth inhibition of human HL-60(TB) cells assessed as cell growth incubated for 48 hrs by sulforhodamine B assay; type: functional; design: concentration or dose not given beside the values
HCC 2998 = test: Growth inhibition of human HCC2998 cells assessed as cell growth incubated for 48 hrs by sulforhodamine B assay; type: functional; design: concentration or dose not given beside the values
MDA-MB-468 = test: Growth inhibition of human MDA-MB-468 cells assessed as cell growth incubated for 48 hrs by sulforhodamine B assay; type: functional; design: concentration or dose not given beside the values
BT-549 = test: Growth inhibition of human BT549 cells assessed as cell growth incubated for 48 hrs by sulforhodamine B assay; type: functional; design: concentration or dose not given beside the values
Hs-578T = test: Growth inhibition of human Hs 578T cells assessed as cell growth incubated for 48 hrs by sulforhodamine B assay; type: functional; design: concentration or dose not given beside the values
SR = test: Growth inhibition of human SR cells assessed as cell growth incubated for 48 hrs by sulforhodamine B assay; type: functional; design: concentration or dose not given beside the values
DU-145 = test: Growth inhibition of human DU145 cells assessed as cell growth incubated for 48 hrs by sulforhodamine B assay; type: functional; design: concentration or dose not given beside the values
SK-OV-3 = test: Growth inhibition of human SKOV3 cells assessed as cell growth incubated for 48 hrs by sulforhodamine B assay; type: functional; design: concentration or dose not given beside the values
K562 = test: Growth inhibition of human K562 cells assessed as cell growth incubated for 48 hrs by sulforhodamine B assay; type: functional; design: concentration or dose not given beside the values
786-0 = test: Growth inhibition of human 786-0 cells assessed as cell growth incubated for 48 hrs by sulforhodamine B assay; type: functional; design: concentration or dose not given beside the values
MCF7 = test: Growth inhibition of human MCF7 cells assessed as cell growth incubated for 48 hrs by sulforhodamine B assay; type: functional; design: concentration or dose not given beside the values
SW-620 = test: Growth inhibition of human SW620 cells assessed as cell growth incubated for 48 hrs by sulforhodamine B assay; type: functional; design: concentration or dose not given beside the values
SK-MEL-28 = test: Growth inhibition of human SK-MEL-28 cells assessed as cell growth incubated for 48 hrs by sulforhodamine B assay; type: functional; design: concentration or dose not given beside the values
SNB-19 = test: Growth inhibition of human SNB19 cells assessed as cell growth incubated for 48 hrs by sulforhodamine B assay; type: functional; design: concentration or dose not given beside the values
SK-MEL-5 = test: Growth inhibition of human SK-MEL-5 cells assessed as cell growth incubated for 48 hrs by sulforhodamine B assay; type: functional; design: concentration or dose not given beside the values
UACC-257 = test: Growth inhibition of human UACC257 cells assessed as cell growth incubated for 48 hrs by sulforhodamine B assay; type: functional; design: concentration or dose not given beside the values
NCI-H226 = test: Growth inhibition of human NCI-H226 cells assessed as cell growth incubated for 48 hrs by sulforhodamine B assay; type: functional; design: concentration or dose not given beside the values
U-251 = test: Growth inhibition of human U251 cells assessed as cell growth incubated for 48 hrs by sulforhodamine B assay; type: functional; design: concentration or dose not given beside the values
A549 = test: Growth inhibition of human A549/ATCC cells assessed as cell growth incubated for 48 hrs by sulforhodamine B assay; type: functional; design: concentration or dose not given beside the values
KM12 = test: Growth inhibition of human KM12 cells assessed as cell growth incubated for 48 hrs by sulforhodamine B assay; type: functional; design: concentration or dose not given beside the values
PC-3 = test: Growth inhibition of human PC3 cells assessed as cell growth incubated for 48 hrs by sulforhodamine B assay; type: functional; design: concentration or dose not given beside the values
SK-MEL-2 = test: Growth inhibition of human SK-MEL-2 cells assessed as cell growth incubated for 48 hrs by sulforhodamine B assay; type: functional; design: concentration or dose not given beside the values
SN12C = test: Growth inhibition of human SN12C cells assessed as cell growth incubated for 48 hrs by sulforhodamine B assay; type: functional; design: concentration or dose not given beside the values
SF-295 = test: Growth inhibition of human SF295 cells assessed as cell growth incubated for 48 hrs by sulforhodamine B assay; type: functional; design: concentration or dose not given beside the values
SNB-75 = test: Growth inhibition of human SNB75 cells assessed as cell growth incubated for 48 hrs by sulforhodamine B assay; type: functional; design: concentration or dose not given beside the values
OVCAR-5 = test: Growth inhibition of human OVCAR5 cells assessed as cell growth incubated for 48 hrs by sulforhodamine B assay; type: functional; design: scale not given: the % may be the effect or the level left
NCI-H322M = test: Growth inhibition of human NCI-H322M cells assessed as cell growth incubated for 48 hrs by sulforhodamine B assay; type: functional; design: scale not given: the % may be the effect or the level left
A498 = test: Growth inhibition of human A498 cells assessed as cell growth incubated for 48 hrs by sulforhodamine B assay; type: functional; design: concentration or dose not given beside the values
NCI-H23 = test: Growth inhibition of human NCI-H23 cells assessed as cell growth incubated for 48 hrs by sulforhodamine B assay; type: functional; design: concentration or dose not given beside the values
CAKI-1 = test: Growth inhibition of human Caki1 cells assessed as cell growth incubated for 48 hrs by sulforhodamine B assay; type: functional; design: concentration or dose not given beside the values
HCT-15 = test: Growth inhibition of human HCT15 cells assessed as cell growth incubated for 48 hrs by sulforhodamine B assay; type: functional; design: scale not given: the % may be the effect or the level left
M14 = test: Growth inhibition of human M14 cells assessed as cell growth incubated for 48 hrs by sulforhodamine B assay; type: functional; design: concentration or dose not given beside the values
NCI/ADR-RES = test: Growth inhibition of human NCI/ADR-RES cells assessed as cell growth incubated for 48 hrs by sulforhodamine B assay; type: functional; design: concentration or dose not given beside the values
UO-31 = test: Growth inhibition of human UO31 cells assessed as cell growth incubated for 48 hrs by sulforhodamine B assay; type: functional; design: concentration or dose not given beside the values
LOX IMVI = test: Growth inhibition of human LOXIMVI cells assessed as cell growth incubated for 48 hrs by sulforhodamine B assay; type: functional; design: concentration or dose not given beside the values
COLO 205 = test: Growth inhibition of human COLO205 cells assessed as cell growth incubated for 48 hrs by sulforhodamine B assay; type: functional; design: concentration or dose not given beside the values
HCT-116 [2] = test: Growth inhibition of human HCT116 cells assessed as cell growth incubated for 48 hrs by sulforhodamine B assay; type: functional; design: concentration or dose not given beside the values
Malme-3M = test: Growth inhibition of human MALME-3M cells assessed as cell growth incubated for 48 hrs by sulforhodamine B assay; type: functional; design: scale not given: the % may be the effect or the level left
UACC-62 = test: Growth inhibition of human UACC62 cells assessed as cell growth incubated for 48 hrs by sulforhodamine B assay; type: functional; design: concentration or dose not given beside the values
NCI-H460 = test: Growth inhibition of human NCI-H460 cells assessed as cell growth incubated for 48 hrs by sulforhodamine B assay; type: functional; design: concentration or dose not given beside the values

SMILES: CC(=O)Oc1ccc2c(=O)c3c(sc4c(=O)c5cc(OC(C)=O)ccc5c(=O)c43)c(=O)c2c1
- pIC50 (HCT-116 [1]): 5.24

SMILES: CC(C)=CCCc1ccc2c(=O)c3c(sc4c(=O)c5ccccc5c(=O)c43)c(=O)c2c1
- Activity (Dermcidin (Homo sapiens)): Active

SMILES: CC(C)(O)C(O)CCc1ccc2c(=O)c3sc4c(=O)c5ccccc5c(=O)c4c3c(=O)c2c1 (stereo unspecified)
- Activity (HT-29): -46.19%
- Activity (SF-268): -57.54%
- Activity (OVCAR-8): -38.88%
- Activity (RXF 393): -77.25%
- Activity (TK-10): -89.49%
- Activity (OVCAR-3): -68.52%
- Activity (NCI-H522): -72.26%
- Activity (ACHN): -96.22%
- Activity (SF-539): -99.46%
- Activity (HOP-92): -32.93%
- Activity (OVCAR-4): -71.07%
- Activity (RPMI-8226): -39.84%
- Activity (MDA-MB-435): -93.07%
- Activity (HOP-62): -90.94%
- Activity (T47D): -51.1%
- Activity (MOLT-4): -36.2%
- Activity (MDA-MB-231): -15.99%
- Activity (CCRF-CEM): -29.57%
- Activity (HL-60(TB)): -46.78%
- Activity (HCC 2998): -90.76%
- Activity (MDA-MB-468): -83.65%
- Activity (BT-549): -96.67%
- Activity (Hs-578T): 1.09%
- Activity (SR): -25%
- Activity (DU-145): -94.41%
- Activity (SK-OV-3): -97.49%
- Activity (K562): -59.88%
- Activity (786-0): -95.07%
- Activity (MCF7): -58.78%
- Activity (SW-620): -60.32%
- Activity (SK-MEL-28): -96.8%
- Activity (SNB-19): -98.59%
- Activity (SK-MEL-5): -98.07%
- Activity (UACC-257): -92.08%
- Activity (NCI-H226): -49.62%
- Activity (U-251): -92.83%
- Activity (A549): -55.33%
- Activity (KM12): -76.76%
- Activity (PC-3): -79.46%
- Activity (SK-MEL-2): -72.32%
- Activity (SN12C): -69%
- Activity (SF-295): -92.59%
- Activity (SNB-75): -95.74%
- Activity (OVCAR-5): -85.63%
- Activity (NCI-H322M): -97.48%
- Activity (A498): -87.3%
- Activity (NCI-H23): -50.82%
- Activity (CAKI-1): -78.75%
- Activity (HCT-15): -61.54%
- Activity (M14): -93.82%
- Activity (NCI/ADR-RES): -15.35%
- Activity (UO-31): -96.98%
- Activity (LOX IMVI): -82.6%
- Activity (COLO 205): -91.79%
- Activity (HCT-116 [2]): -80.84%
- Activity (Malme-3M): -93.22%
- Activity (UACC-62): -88.01%
- Activity (NCI-H460): -52.32%

SMILES: O=C(Nc1ccc2c(=O)c3c(sc4c(=O)c5cc(NC(=O)C(F)(F)F)ccc5c(=O)c43)c(=O)c2c1)C(F)(F)F
- pIC50 (HCT-116 [1]): 6.24
